Test results published in patent US20240197652A1, “KETAMINE IN THE TREATMENT OF […]” (Awakn LS Europe Holdings Limited, priority 2021, published 2024).

Tests used:
Format in all cases: in vivo, human
[1] = Plasma ketamine, HNK and norketamine levels, CSBD subjects (Example 10); details: analyte = label; for peak plasma concentration: 100 mg racemic ketamine sublingual; for time of peak plasma concentration: post-administration of 100 mg racemic ketamine sublingual
Experimental: A study was completed on the use of ketamine to treat CSBD. Subjects were assessed for CSBD using the Problematic Pornography Use Scale (PPUS) and were included if they received an PPUS score greater than 3. Three subjects in total were included (CSB1-CSB3). All three were administered sublingual lozenges comprising 100 mg of racemic ketamine.
Blood samples were collected from all three subjects. Blood samples were analysed to determine ketamine and ketamine metabolite levels. Assessments were conducted as below.
The treatment protocol commenced in the same way as disclosed in the ketamine in subjects with gambling disorder study completed in EXAMPLE 7, with the exceptions outlined as follows: No behavioural tasks were completed. Self-report measures completed during EXAMPLE 10 included the Emotional Intimacy Measure, the Childhood Trauma Questionnaire, the Generalised Anxiety Disorder-7 (GAD-7), the Morningness-Eveningness Questionnaire (MEQ), and the Problematic Pornography Questionnaire (PPQ), the Acceptance and Action Questionnaire, and the Psychological and Interpersonal Relationship Scales (PAIRS).

[2] = test system: subjects with gambling disorder; experiment: Problem Gambling Severity Index (PGSI), Example 7; details: for PGSI score at 2-week follow up / PGSI classification at two-week follow up: after 100 mg racemic ketamine sublingual; for PGSI score, pre-administration / PGSI classification, pre-administration: baseline before 100 mg racemic ketamine sublingual; for % change in PGSI score: pre-administration to 2-week follow up, 100 mg racemic ketamine sublingual
Experimental: A study was completed on the use of ketamine to treat gambling disorder. Subjects were assessed for gambling disorder using the PGSI. Subjects were included if they received a PGSI score greater than 3. Five subjects in total were included (G1-G5). All five subjects were administered ketamine. Blood samples were collected from all five subjects. Blood samples were analysed to determine ketamine and ketamine metabolite levels, and each subject was assessed post-administration to determine the effectiveness of the treatment.
The study spanned a total of 30 days (not counting initial contact and prescreening). Prescreening of all subjects was conducted by phone, and subjects recorded self-report measures, including the Sensitivity to Punishment and Sensitivity to Reward Questionnaire (SPSRQ) and the Gambling Related Cognitions Questionnaire. Prior to beginning treatment, each subject completed the Beck Depression Inventory (BDI) to determine a baseline depression score. Total scores of 0-13 are minimal, 14-19 are mild, 20-28 are moderate, and 29-63 are severe (Beck, Steer, and Brown, 1996).
On Day 3, each subject returned on-site and was administered ketamine. 100 mg of racemic ketamine was administered in as sublingual lozenges.
The remaining follow-up sessions were completed online. Follow-up 1 was completed on Day 4, Follow-up 2 on Day 14, and Follow-up 3 on Day 30. At each follow-up session, the same self-report measures and behavioural tasks were completed.
The PGSI classifies potential problem gamblers in four categories based on scores. A score of 0 is a non-problem gambler, a score of between 1 and 2 is a low-risk gamber (mild), a score of 3-7 is a moderate-risk gambler (moderate), and a score of 8 or above is a problem gambler (severe). Subject G4 was classified as a moderate-risk (moderate) gambler pre-administration, and at the two-week follow up was classified as a low-risk (mild) gambler. Subject G5 was classified as a problem (severe) gambler pre-administration, and at the two-week follow up was classified as a low-risk (mild) gambler

[3] = test system: subjects with gaming disorder; experiment: Adverse events, KSET, Example 9; details: three gaming disorder subjects; 100 mg racemic ketamine sublingual
total plasma leptin = experiment: Total plasma leptin, Example 8; details: for total plasma leptin at 90 minutes post-lozenge / % change in total leptin: 100 mg racemic ketamine sublingual; for total plasma leptin, pre-administration: baseline before 100 mg racemic ketamine sublingual; for % change in total leptin: pre-administration to 90 minutes post-lozenge
Experimental: Blood samples were collected from all three subjects. Blood samples were analysed to determine ketamine and ketamine metabolite levels, as well as the hormones leptin and ghrelin. Self-report measures were conducted.
The treatment protocol commenced in substantially the same way as disclosed in the ketamine in subjects with gambling disorder study completed in EXAMPLE 7, with the exceptions outlined as follows: No behavioural tasks were completed. Blood samples collected every 10 minutes from the time of administration to 90 minutes post-administration were additionally analysed for leptin and ghrelin. Self-report measures included the Binge Eating Scale, the Adult Attachment Interview (AAI), a 20 question interview about the subject's recollections of their childhood (Sykes and Turner, 2015); the Childhood Trauma Questionnaire; the Morningness-Eveningness Questionnaire (MEQ), a 19-item questionnaire designed to assess when a respondent prefers to wake up or start sleep (American Thoracic Society, 2022); the DSM-5 Binge Eating Disorder diagnostic criteria; and the SPSRQ.
Changes in ghrelin and leptin were measured. Ghrelin stimulates appetite and food intake, increases fat deposition, and releases growth hormone. Obese binge eating disorder subjects often have reduced plasma ghrelin, possibly due to the downregulation of ghrelin from excess eating or body fat (Atalayer et al. 2013). Leptin forms a negative feedback loop between fat cells and the hypothalamus, wherein leptin secretion signals the hypothalamus to inhibit food intake and increase energy expenditure. Increased leptin may aid in reducing appetite cravings associated with binge eating disorder (Obradovic et al. 2021).

[4] = test system: subjects with gaming disorder; experiment: Craving for Gaming Questionnaire (CGQ), Example 9; details: for CGQ score at 2-week follow up: after 100 mg racemic ketamine sublingual; for CGQ score, pre-administration: baseline before 100 mg racemic ketamine sublingual; for % change in Craving for Gaming Questionnaire: pre-administration to 2-week follow up, 100 mg racemic ketamine sublingual
Experimental: A study was completed on ketamine to treat gaming disorder. Subjects were assessed for gaming disorder using the Internet Gaming Disorder Scale (IGDS) and were included if they received an IGDS score greater than 3. Three subjects in total were included (IG1-IG3). All three were administered sublingual lozenges comprising 100 mg of racemic ketamine.
The treatment protocol commenced in the same manner as disclosed in the ketamine in subjects with gambling disorder study completed in EXAMPLE 7, with the exceptions as follow: No behavioural tasks were completed. Self-report measures completed during EXAMPLE 9 included Social Phobia Inventory (SPIN), the Craving for Gaming Questionnaire (CGQ), and Generalised Anxiety Disorder-7 (GAD-7) the Sensitivity to Reward and Punishment Scale, and the Childhood Trauma Questionnaire, the Morningness-Eveningness Questionnaire (MEQ).

SMILES: N[C@@]1(c2ccccc2Cl)CCC[C@@H](O)C1=O [HNK, (2S,6S;2R,6R)-hydroxynorketamine]
- peak plasma concentration ([1]; subject CSB1): about 136 ng/ml
- time of peak plasma concentration ([1]; subject CSB1): 80 min
- peak plasma concentration ([1]; subject CSB2): about 135 ng/ml
- time of peak plasma concentration ([1]; subject CSB2): 90 min
- peak plasma concentration ([1]; subject CSB3): about 314 ng/mL
- time of peak plasma concentration ([1]; subject CSB3): 70 min

SMILES: NC1(c2ccccc2Cl)CCCCC1=O (racemic) [Norketamine, (R,S)-norketamine]
- peak plasma concentration ([1]; subject CSB1): about 1,069 ng/ml
- time of peak plasma concentration ([1]; subject CSB1): 80 min
- peak plasma concentration ([1]; subject CSB2): about 785 ng/ml
- time of peak plasma concentration ([1]; subject CSB2): 70 min
- peak plasma concentration ([1]; subject CSB3): about 923 ng/mL
- time of peak plasma concentration ([1]; subject CSB3): 70 min

SMILES: CNC1(c2ccccc2Cl)CCCCC1=O (racemic) [ketamine, 2-(2-chlorophenyl)-2-(methylamino)-cyclohexanone]
- peak plasma concentration ([1]; subject CSB1): about 368 ng/ml
- time of peak plasma concentration ([1]; subject CSB1): 70 min
- peak plasma concentration ([1]; subject CSB2): about 285 ng/ml
- time of peak plasma concentration ([1]; subject CSB2): 30 min
- peak plasma concentration ([1]; subject CSB3): about 395 ng/mL
- time of peak plasma concentration ([1]; subject CSB3): 50 min
- PGSI score at 2-week follow up ([2]; subject G1): 5
- PGSI score, pre-administration ([2]; subject G1): 4
- % change in PGSI score ([2]; subject G1): +25%
- PGSI score at 2-week follow up ([2]; subject G2): 11
- PGSI score, pre-administration ([2]; subject G2): 16
- % change in PGSI score ([2]; subject G2): −31.25%
- PGSI score at 2-week follow up ([2]; subject G3): 18
- PGSI score, pre-administration ([2]; subject G3): 21
- % change in PGSI score ([2]; subject G3): −14.29%
- PGSI classification at two-week follow up ([2]; subject G4): low-risk (mild) gambler (a score of between 1 and 2 is a low-risk gamber (mild))
- PGSI score at 2-week follow up ([2]; subject G4): 1
- PGSI classification, pre-administration ([2]; subject G4): moderate-risk (moderate) gambler (a score of 3-7 is a moderate-risk gambler (moderate))
- PGSI score, pre-administration ([2]; subject G4): 3
- % change in PGSI score ([2]; subject G4): −66.67%
- PGSI classification at two-week follow up ([2]; subject G5): low-risk (mild) gambler (a score of between 1 and 2 is a low-risk gamber (mild))
- PGSI score at 2-week follow up ([2]; subject G5): 2
- PGSI classification, pre-administration ([2]; subject G5): problem (severe) gambler (a score of 8 or above is a problem gambler (severe))
- PGSI score, pre-administration ([2]; subject G5): 11
- % change in PGSI score ([2]; subject G5): −81.82%
- course of adverse events [3]: All adverse events were transient, and resolved two hours post-lozenge
- overall tolerability [3]: well-tolerated, with no drop-outs
- unexpected adverse reactions (KSET) [3]: No unexpected adverse reactions were observed
- total plasma leptin at 90 minutes post-lozenge (total plasma leptin; subject BE1): 9.11 ng/mL
- total plasma leptin, pre-administration (total plasma leptin; subject BE1): 7.10 ng/mL
- % change in total leptin (total plasma leptin; subject BE1): +28.31%
- total plasma leptin at 90 minutes post-lozenge (total plasma leptin; subject BE2): 27.98 ng/mL
- total plasma leptin, pre-administration (total plasma leptin; subject BE2): 21.88 ng/mL
- % change in total leptin (total plasma leptin; subject BE2): +27.88%
- total plasma leptin at 90 minutes post-lozenge (total plasma leptin; subject BE3): 11.23 ng/mL
- total plasma leptin, pre-administration (total plasma leptin; subject BE3): 12.36 ng/mL
- % change in total leptin (total plasma leptin; subject BE3): −9.14%
- CGQ score at 2-week follow up ([4]; subject IG1): 28
- CGQ score, pre-administration ([4]; subject IG1): 30
- % change in Craving for Gaming Questionnaire ([4]; subject IG1): −6.67%
- CGQ score at 2-week follow up ([4]; subject IG2): 15
- CGQ score, pre-administration ([4]; subject IG2): 31
- % change in Craving for Gaming Questionnaire ([4]; subject IG2): −51.61%
- CGQ score at 2-week follow up ([4]; subject IG3): 21
- CGQ score, pre-administration ([4]; subject IG3): 45
- % change in Craving for Gaming Questionnaire ([4]; subject IG3): −53.33%
